Experimental data from patent US20250354111A1, “BOVINE SEX-SORTED SPERM SORTING SOLUTION MEDIATED BY SMALL MOLECULE COMPOUND AND ITS APPLICATION” (Inner Mongolia University, priority 2024, published 2025).

Tested on: bovine sperm
Test: Effect of creatine concentration on sorting of X and Y sperm in sorting solution with 24e drug (Example 2)
Assay type: cell-based
Conditions: creatine 500 μM with 24e drug 0.3 μM; 37° C., 60 min; 6x107 sperm/mL
Description: Based on the exploration in Example 1 that the range of 0.27 μM-0.33 μM is the optimal concentration range for the 24e drug to sort bovine sperm, the effect of creatine on the sperm sorting effect was examined by incubating bovine sperm with creatine added to the sorting solution with a 24e drug concentration of 0.3 μM.
Fresh bovine semen provided by the Grassland Livestock Germplasm Innovation and Breeding Base of Inner Mongolia University was used, washed with in vitro fertilization solution, and after dilution, the sperm density was 6x107 sperm/mL. At 37° C., the 24e drug was added to the sperm sorting protection solution to make the final concentration of the 24e drug 0.3 μM. On this basis, creatine was added, and bovine sperm was incubated for 60 min. The amounts of creatine used were 0 μM (control group), 200 μM, 300 μM, 400 μM, 500 µM, and 600 μM. The sorting effect of sperm at each creatine concentration was obtained by analyzing the sperm in the upper and lower layers, as shown in FIG. 2. […] In the upper layer of sperm, the percentage of X sperm is 22%, and the percentage of Y sperm is 78%. Creatine can enhance the activity of sperm, so that Y sperm floats up faster, while the activity of X sperm is inhibited by the 24e drug and sinks, making the stratification more obvious and improving the sorting efficiency. When the sperm density is 6x10^7 sperm/mL, the concentration of the 24e drug is 0.27 μM-0.33 μM, and the creatine concentration is 500 μM-600 μM, the sorting effect on bovine sperm is the best.

With `CN(CC(=O)O)C(=N)N` [creatine] the “percentage of X sperm in the lower layer of sorted sperm” value was 70.33%, the “percentage of X sperm in the upper layer of sperm” value was 22% and the “percentage of Y sperm in the lower layer of sorted sperm” value was 29.67%. The “percentage of Y sperm in the upper layer of sperm” value was 78%.
